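Five concentrations, 48 hours, 96-well plates. GI50: concentration for 50% inhibition of growth.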 Activity calls are given as the source filed them. Cut-off read from the data, not from the text of the source: active = GI50 up to about 1.1 µM and inactive = higher.
Assays:
Test in all cases: NCI-60 cell line screen, 48 h
EKVX = test system: EKVX
SW-620 = test system: SW-620
KM12 = test system: KM12
CCRF-CEM = test system: CCRF-CEM
OVCAR-8 = test system: OVCAR-8
M19-MEL = test system: M19-MEL
SF-539 = test system: SF-539
MDA-MB-435 = test system: MDA-MB-435
LXFL 529 = test system: LXFL 529
NCI-H23 = test system: NCI-H23
UACC-62 = test system: UACC-62
NCI-H522 = test system: NCI-H522
U-251 = test system: U-251
NCI-H460 = test system: NCI-H460
MDA-MB-231 = test system: MDA-MB-231
MCF7 = test system: MCF7
Malme-3M = test system: Malme-3M
MOLT-4 = test system: MOLT-4
SNB-19 = test system: SNB-19
PC-3 = test system: PC-3

| SMILES | GI50 (EKVX) | GI50 (SW-620) | GI50 (KM12) | GI50 (CCRF-CEM) | GI50 (OVCAR-8) | GI50 (M19-MEL) | GI50 (SF-539) | GI50 (MDA-MB-435) | GI50 (LXFL 529) | GI50 (NCI-H23) | GI50 (UACC-62) | GI50 (NCI-H522) | GI50 (U-251) | GI50 (NCI-H460) | GI50 (MDA-MB-231) | GI50 (MCF7) | GI50 (Malme-3M) | GI50 (MOLT-4) | GI50 (SNB-19) | GI50 (PC-3) |
| --- | --- | --- | --- | --- | --- | --- | --- | --- | --- | --- | --- | --- | --- | --- | --- | --- | --- | --- | --- | --- |
| COCC(=O)OC1CCn2c1nc1c2C(=O)C(C)=C(NC(C)=O)C1=O (stereo unspecified) | 7.6 µM (inactive) | 7.4 µM (inactive) | 15.7 µM (inactive) | 0.857 µM (active) | 3.48 µM (inactive) | 11.7 µM (inactive) | 3.94 µM (inactive) | 1.89 µM (inactive) | 3.35 µM (inactive) | 7.85 µM (inactive) | 3.27 µM (inactive) | 4.57 µM (inactive) | 6.05 µM (inactive) | 17.5 µM (inactive) | 1.24 µM (inactive) | 1.84 µM (inactive) | 2.77 µM (inactive) | 1.14 µM (inactive) | 19.6 µM (inactive) | 2.27 µM (inactive) |
| CC(=O)Nc1ccc(S(=O)(=O)N/N=C/CN2C(=O)c3ccccc3C2=O)cc1 | > 100 µM (inactive) | > 100 µM (inactive) | > 100 µM (inactive) | > 100 µM (inactive) | > 100 µM (inactive) | > 100 µM (inactive) | > 100 µM (inactive) |  | > 100 µM (inactive) | > 100 µM (inactive) | > 100 µM (inactive) | > 100 µM (inactive) | > 100 µM (inactive) | > 100 µM (inactive) |  |  | > 100 µM (inactive) | > 100 µM (inactive) | > 100 µM (inactive) |  |

Source: ChEMBL document CHEMBL1201862, “PubChem BioAssay data set” (2004)
